Experimental data from the NIST ThermoML archive (doi:10.1016/j.jct.2018.02.022).

Assay: xn = mol fraction of the nth substance listed
Settings: 92.3 kPa, Liquid; for viscosity: Concentric cylinders viscometry; for speed of sound: Frequency=3 MHz, Single path-length method; for mass density: Vibrating tube method

OCCO [1,2-ethanediol] + O
Settings	mass density, 293.15 K [kg/m3]	mass density, 298.15 K [kg/m3]	speed of sound, 293.15 K [m/s]	speed of sound, 298.15 K [m/s]	viscosity, 293.15 K [mPa·s]	viscosity, 298.15 K [mPa·s]
x1 = 0.0101	1002.83	1001.54	1498.9	1511.9	–	–
x1 = 0.0201	1006.96	1005.57	1514.6	1526.3	–	–
x1 = 0.0302	1011.02	1009.56	1529.7	1540.2	–	–
x1 = 0.0407	1015.07	1013.5	1544.6	1553.8	–	–
x1 = 0.0494	1018.4	1016.76	–	–	1.541	1.253
x1 = 0.0506	1018.75	1017.08	1558.1	1566.2	–	–
x1 = 0.0605	1022.31	1020.55	1570.8	1577.9	–	–
x1 = 0.0704	1025.78	1023.96	1583.2	1589.2	–	–
x1 = 0.0801	1029.04	1027.15	1594	1599	–	–
x1 = 0.0905	1032.34	1030.37	1605.6	1609.6	–	–
x1 = 0.0986	1034.8	1032.78	–	–	2.078	1.68
x1 = 0.0997	1035.3	1033.24	1614.8	1618	–	–
x1 = 0.1483	1048.46	1046.12	–	–	2.699	2.167
x1 = 0.1493	1048.74	1046.4	1656.2	1655.5	–	–
x1 = 0.1985	1059.45	1056.96	1684.5	1681	–	–
x1 = 0.2072	1061.51	1058.86	–	–	3.517	2.811
x1 = 0.2466	1068.68	1065.86	–	–	4.104	3.276
x1 = 0.2487	1069.2	1066.32	1702.1	1696.5	–	–
x1 = 0.298	1076.5	1073.51	–	–	4.94	3.936
x1 = 0.2998	1076.8	1073.79	1712.9	1705.8	–	–
x1 = 0.3318	1080.9	1077.77	1716.6	1708.7	–	–
x1 = 0.3399	1081.8	1078.69	–	–	5.663	4.507
x1 = 0.3921	1087.31	1084.09	–	–	6.621	5.261
x1 = 0.3981	1087.84	1084.61	1719.4	1710.4	–	–
x1 = 0.4446	1091.88	–	–	–	7.638	6.062
x1 = 0.4521	1092.39	–	1718.6	1708.8	–	–
x1 = 0.4934	1095.4	1092.05	1716.1	1705.9	–	–
x1 = 0.5007	–	1092.56	–	–	8.782	6.959
x1 = 0.5485	1098.81	1095.42	–	–	9.81	7.764
x1 = 0.552	1099	–	1711.5	1700.9	–	–
x1 = 0.5846	1100.79	1097.38	1708.3	1697.6	–	–
x1 = 0.6004	1101.51	1098.09	–	–	10.95	8.662
x1 = 0.6451	1103.53	1100.1	–	–	11.97	9.461
x1 = 0.6481	1103.65	1100.22	1702.1	1691	–	–
x1 = 0.6773	1104.88	1101.43	1699	1687.8	–	–
x1 = 0.7012	1105.75	1102.3	–	–	13.33	10.55
x1 = 0.7421	1107.16	1103.69	1692.2	1680.8	–	–
x1 = 0.7435	1107.22	1103.76	–	–	14.35	11.32
x1 = 0.7811	1108.41	1104.94	1688	1676.5	–	–
x1 = 0.7907	1108.69	1105.22	–	–	15.51	12.24
x1 = 0.8497	–	1106.83	1681	1669.3	–	–
x1 = 0.8505	–	1106.84	–	–	16.94	13.35
x1 = 0.89	1111.29	1107.8	–	–	17.91	14.12
x1 = 0.9002	1111.55	1108.06	1676	1664.3	–	–
x1 = 0.9059	1111.66	1108.17	1675.5	1663.8	–	–
x1 = 0.912	1111.78	1108.29	1675	1663.3	–	–
x1 = 0.9299	1112.18	1108.69	1673.3	1661.5	–	–
x1 = 0.9413	1112.43	1108.94	1672.2	1660.4	–	–
x1 = 0.9495	1112.62	1109.13	1671.4	1659.6	–	–
x1 = 0.9532	1112.69	1109.19	–	–	19.48	15.35
x1 = 0.9546	1112.73	1109.23	1671	1659.2	–	–
x1 = 0.9681	1112.99	1109.49	1669.9	1658.1	–	–
x1 = 0.9789	1113.19	–	1669	1657.2	–	–
x1 = 0.9893	1113.4	–	1667.9	1656.1	–	–
x1 = 1	1113.72	–	1666.5	1654.7	20.61	16.22
